Test results as given in US20090214580A1, “Peptide mixtures with immunomodulatory activity” (priority 2004, published 2009).

Tests used:
[1] = test system: EAE; conditions: Lewis rats; cited from earlier work
[2] = test system: PBMC from healthy donors and MS patients; assay: T cell proliferation of PBMC, primary and secondary (3H-thymidine); type: cell-based, human; conditions: 20 μg/ml; healthy donor and MS patient PBMC; words
Procedure: FIG. 1: Peptide length and composition affect the stimulatory potential of complex mixtures (CM). The stimulatory capacity of CM ranging in size and composition were tested in PBMC from nine healthy donors in both primary (A,C) and secondary (B,D) proliferations to confirm the specificity of the response. 20 μg/ml of CM or GA were each added to 18 wells and the % of positive wells (those wells with CPM having an SI greater than twice that observed in background/control wells) determined from pooled data from all donors. Figures A and B analyze the contribution of peptide length and Figures C and D the composition or MHC-bias to stimulatory potential. […]
PBMC were isolated from leukocytaphereses and seeded in complete T cell medium (TCM; Iscove's modified Dulbecco's medium [IMDM] containing 2 mM 1-glutamine, 50 μg/ml gentamycin, penicillin-streptomycin 100 U/ml each, and 5% pooled human AB serum) at 2×10^5 cells/well into 96 well U-bottom microtiter plates (Nunc, Naperville, Ill.) and stimulated with CM and GA at 20 μg/ml. After 6 days, 100 μl samples of cell suspension were removed from these plates and transferred to a new microtiter plate to which 1 μCi/well of H^3-thymdidine (Amersham Pharmacia Biotech, Piscataway, N.J.) was added and after 16 hours harvested and counted in a scintillation counter (Microbeta, Wallac, Gatihersburg, Md.). […]

[3] = test system: SJL mouse spleen cells; assay: SJL mouse spleen primary proliferative responses to CM; type: cell-based; conditions: naive SJL spleen cells; 40, 10, 2.5 μg/ml; words
Procedure: FIG. 3: SJL mouse spleen primary proliferative responses to CM. Mouse splenic cells were seeded with 3 different doses of CM (40, 10 and 2.5 μg/ml) or GA to test for stimulatory potential of CM of (A) varying length or (B) differential anchor bias. 18 wells were seeded per antigen, and data from 2 experiments were pooled. % positive wells represents the proportion of wells with CPM at a SI greater than 2 compared to background/control wells.
(§1) 6-8 week old female SJL/J mice were purchased from Charles River Laboratories (Wilmington, Mass.). Spleen cells were isolated from anesthetized naïve SJL mice or 10 days after immunization with 200 μg of CM or GA in Complete Freund's Adjuvant (CFA—Difco Laboratories, Detroit, Mich.) on four spots on their back and subsequent aseptic spleen removal and red blood cell lysis using ACK lysis buffer from Biosource (Camarillo, Calif.). […] After six or three days in naïve or immunized mouse experiments respectively, 1 μCi ^3[H]-thymidine (Dupont, Wilmington, Del.) was added overnight and subsequently harvested and counted for thymidine incorporation on a Trilux liquid scintillation counter (Wallac, Gaithersburg, Md.).

[4] = test system: spleen cells from immunized SJL mice; assay: Spleen cells of CM- or GA-immunized SJL mice, response to immunizing antigen; type: cell-based, mouse; conditions: spleen cells ten days after immunization; words
Description: (§2) FIG. 4. Cross reactivity of CM-specific lines to MBP. SJL mice were immunized with CM or GA to enhance the number of CM-specific T cells to assess for cross-reactivity to MBP. Spleen cells were removed from mice ten days post immunization and set into culture (6 wells per condition) with the initial immunizing antigen or human MBP at the μg/ml concentrations shown on the X axes. *p<0.05 by Student's t test comparing proliferation in test wells to control wells without antigen.
as §1

[5] = test system: whole human MBP; assay: Spleen cells of CM- or GA-immunized SJL mice, cross reactivity to human MBP; type: cell-based, mouse; conditions: spleen cells ten days after immunization; words
Description: as §2, §1

[6] = test system: PLP139-151-induced EAE; assay: Prophylaxis in PLP139-151-induced EAE; type: in vivo, SJL mice
[7] = test system: multiple sclerosis; conditions: MS patients; cited from earlier work
[8] = target: HLA-DR2 (Homo sapiens, UniProt P01903+P01911); conditions: cited from earlier work

In the case of EYYKEYYKEYYK, the “effect on EAE” value [1] is given as “ameliorate EAE”.

In the case of Glatiramer acetate [GA], the “stimulatory potential (proliferative responses, % positive wells)” value [2] is reported as “most frequently observed”, the “stimulatory potential (primary proliferative responses)” value [3] is reported as “most frequently observed” and the “response to immunizing antigen (SI)” value [4] is reported as “very high SIs”. For the same substance, the “cross reactivity with whole human MBP” value [5] was “cross reacted”, the “Cumulative disease score (day 0-24)” value ([6]; 500 μg co-injected s.c. with 75 μg PLP 139-151, initial disease course, mean ± SEM) was 10.2 ± 1.6 and the “Cumulative disease score (day 24-45)” value ([6]; 500 μg co-injected s.c. with 75 μg PLP 139-151, remaining disease course, mean ± SEM) was 13.5 ± 3.0. For the same substance, the “prophylactic effect on the EAE disease course” value ([6]; single 500 μg dose with PLP 139-151) was “significantly reduce the overall disease score”, the “reduction of cumulative disease score throughout the relapse phase” value ([6]; single 500 μg dose with PLP 139-151, vs PLP alone) was “approximately one-third” and the “reduction of the relapse rate in MS” value [7] was “about 30%”. The “competition for binding of MBP (85-99) to HLA-DR2” value [8] was “effectively compete”.

In the case of poly-YEAK, the “binding to DR2 molecules” value ([8]; compared with poly-YEA, -YEK and -YAK) is listed as “better binders”.
